From ChEMBL document CHEMBL3507680, “University of Dundee, Gates Library screen for HepG2 cell viability” come the findings set out here.

This series can be described thus: Human HepG2 cell viability assay in 384 well format. It counts as toxicity, cell-based. Details: dose 125 nL, time 70.5 hour; concentration not given beside the values. As to conditions: HepG2 cells, read-out: Inhibition.
With `CC(C)(C)NC(=O)C1CCCCN1Cc1nccn1CC(F)(F)F` (configuration not stated), the cytotoxicity at 70.5 h is -0.987%.

Take `CC(C)(C)c1cc(=O)[nH]c(C2(N)CCCC2)n1`: the cytotoxicity at 70.5 h came to 14.1%.

For `COc1ccccc1N1CCCC(NC(=O)Nc2cccnc2)C1` (configuration not stated), the cytotoxicity at 70.5 h is 8.99%.

As for `COc1c(F)cc(NC(=O)N2CCC(CSC)C2)cc1F` (configuration not stated), the cytotoxicity at 70.5 h was determined as 16.5%.

Turning to `COC(CNC(=O)CNC(=O)c1ccccc1)c1cccc(Cl)c1` (configuration not stated), the cytotoxicity at 70.5 h was -2.92%.

`CC(Cc1cccc(F)c1)C(=O)NS(=O)(=O)c1ccc2c(c1)OCCO2` (configuration not stated): the cytotoxicity at 70.5 h was determined as 19.6%.

As to `Cc1cc(CNC2(CO)CCOCC2)ccc1Br`, the cytotoxicity at 70.5 h was -0.894%.

Take `CC(C)c1ccc(/C=C/CC(=O)NC2CCN(C(N)=O)C2)cc1` (configuration not stated): the cytotoxicity at 70.5 h turned out to be 9%.

Take `CC(C)c1ccc(/C=C/CC(=O)NC2CCS(=O)(=O)CC2)cc1`: the cytotoxicity at 70.5 h was -1.79%.

As for `CCN(CC)C1CCN(C(=O)Nc2cc(F)c(OC)c(F)c2)C1` (configuration not stated), the cytotoxicity at 70.5 h stood at 1.91%.

Consider `Cc1nnc(CN(C)CC(=O)N2CCCC(C)CC2)n1C` (configuration not stated), for which the cytotoxicity at 70.5 h was -8.63%.

As for `O=C(NC1CCN(c2ccccc2OC(F)F)C1)c1cccnc1` (configuration not stated), the cytotoxicity at 70.5 h was -4.78%.

Turning to `O=S(=O)(CCCN1CCc2c(ncn2C2CC2)C1)c1ccccc1`, the cytotoxicity at 70.5 h is 1.18%.

`CN(CCCOc1ccc(F)cc1)S(=O)(=O)c1cnn(C)c1`: the cytotoxicity at 70.5 h was -8.61%.

Consider `CN(CCCOc1ccccc1)S(=O)(=O)c1cnn(C)c1`, for which the cytotoxicity at 70.5 h is 21.2%.

In the case of `Cc1ccc(OCCN(C)S(=O)(=O)c2cnn(C)c2)cc1`, the cytotoxicity at 70.5 h is -4.35%.

As to `NC(=O)NC(=O)C(c1ccccc1)N1CCN(Cc2ccccc2)CC1` (configuration not stated), the cytotoxicity at 70.5 h turned out to be 1.22%.

Consider `COCCNC(=O)CCNc1cc(C)nc(-c2ccncc2)n1`, for which the cytotoxicity at 70.5 h is -15.7%.

`Cc1cc(NCCC(=O)NC2CCCC2)nc(-c2ccncc2)n1`: the cytotoxicity at 70.5 h was 0.777%.

Take `CC(C)N1CCCC(CNC(=O)c2ccnc(-n3ccnc3)c2)C1` (configuration not stated): the cytotoxicity at 70.5 h is -4.35%.

As for `Cc1ccc2c(c1)CCC2NC(=O)N1CCC(C(N)=O)CC1` (configuration not stated), the cytotoxicity at 70.5 h is -6.61%.

For the compound `Cc1cc(NCCC(=O)NC2CCS(=O)(=O)C2)nc(-c2ccncc2)n1` (configuration not stated), the cytotoxicity at 70.5 h is -8.91%.

In the case of `CN(CCNC(=O)c1ccnc(-n2ccnc2)c1)C1CC1`, the cytotoxicity at 70.5 h was -1.87%.

Regarding `CC(NC(=O)NCC(F)(F)F)c1nncn1C` (configuration not stated), the cytotoxicity at 70.5 h was determined as 29.7%.

As to `CS(=O)(=O)CCN1CCc2c(ncn2C2CC2)C1`, the cytotoxicity at 70.5 h was -3.42%.

With `CN(C)CCOc1ccc(N(C)S(=O)(=O)c2cnn(C)c2)cc1`, the cytotoxicity at 70.5 h is -1.43%.

Regarding `c1ccc(C2(CNCc3cnc(N4CCOCC4)nc3)CC2)cc1`, the cytotoxicity at 70.5 h is -8.71%.

`Cc1cc(C(=O)N(CCN(C)C)Cc2ccc(Cl)cc2)no1`: the cytotoxicity at 70.5 h was -0.353%.

Take `Cc1ccc(CNc2ccccc2-n2ccc(C)n2)nc1`: the cytotoxicity at 70.5 h was 8.61%.

Turning to `CC(C)CC(=O)NCCCc1cc(N)n(-c2ccccc2)n1`, the cytotoxicity at 70.5 h amounted to 4.65%.

Turning to `CC(CNC(=O)NCCCc1cc(N)n(-c2ccccc2)n1)N(C)C` (configuration not stated), the cytotoxicity at 70.5 h was -8.44%.

Take `CCc1nc(CN2CCCC(N(C)Cc3nc(C)c(C)o3)C2)no1` (configuration not stated): the cytotoxicity at 70.5 h was -74.1%.

Regarding `CCc1nc(CN2CCCC(N(C)Cc3cnc(C)cn3)C2)no1` (configuration not stated), the cytotoxicity at 70.5 h is -71.2%.

For `Cc1nc(CCNC(=O)C2CC(=O)N(C(C)C)C2)cs1` (configuration not stated), the cytotoxicity at 70.5 h worked out at 32.3%.

`CCSc1cc(C(=O)NCCNC(=O)Cc2ccccc2)ccn1`: the cytotoxicity at 70.5 h is -117%.

Regarding `CCCc1cc(NC2CCc3nc(CC)nn3C2)n2ncnc2n1` (configuration not stated), the cytotoxicity at 70.5 h was -100%.

Consider `Cc1nc(C)n(CC2CCCN2Cc2coc(-c3cccs3)n2)n1` (configuration not stated), for which the cytotoxicity at 70.5 h is -115%.

For the compound `Cc1ccc(-c2nc(CCNC(=O)C3CC(=O)N(C)C3)cs2)cc1` (configuration not stated), the cytotoxicity at 70.5 h is -98.5%.

For `CCCc1cc(NC2CCc3nc(C(C)C)nn3C2)n2ncnc2n1` (configuration not stated), the cytotoxicity at 70.5 h was -104%.

`c1csc(-c2nc(CN3CCCC3Cn3cccn3)co2)c1` (configuration not stated): the cytotoxicity at 70.5 h was -75.5%.

`Cc1cnn(CC2CCCN2Cc2coc(-c3cccc(F)c3)n2)c1` (configuration not stated): the cytotoxicity at 70.5 h is -113%.

In the case of `CCS(=O)(=O)CCCOc1nc(-c2ccccc2Cl)no1`, the cytotoxicity at 70.5 h was -96.6%.

Take `O=C1CCC(=O)N1CCOc1nc(-c2ccccc2Cl)no1`: the cytotoxicity at 70.5 h is -77.6%.

On to `Cc1n[nH]c(C2CN(CC(=O)NCc3sccc3C)CCO2)n1` (configuration not stated), for which the cytotoxicity at 70.5 h was -93.4%.

In the case of `O=C(NS(=O)(=O)c1cc(Cl)ccc1Cl)c1cccc2c1OCCO2`, the cytotoxicity at 70.5 h was determined as 58.5%.

Take `O=C(NS(=O)(=O)c1ccc(Cl)cc1F)c1cccc2c1OCCO2`: the cytotoxicity at 70.5 h was -108%.

In the case of `CCSc1cc(C(=O)NCCNC(=O)N(C)C)ccn1`, the cytotoxicity at 70.5 h was -76.6%.

As for `Cc1cc(C(=O)N2CCN(S(C)(=O)=O)[C@@H](C)C2)c(F)cc1F`, the cytotoxicity at 70.5 h is -97.9%.

Turning to `Cc1cc(NC2CCc3ncnn3C2)n2nc(C(F)(F)F)nc2n1` (configuration not stated), the cytotoxicity at 70.5 h is -95.5%.

For the compound `Cc1ccc(F)cc1C(=O)N1CCN(S(C)(=O)=O)[C@@H](C)C1`, the cytotoxicity at 70.5 h is -82.4%.

In the case of `CN(Cc1ccc(N2CCOCC2)cc1)Cc1noc(C(C)(C)C)n1`, the cytotoxicity at 70.5 h was 7.66%.

For `COCCc1noc(CN2CCCC2c2noc(C3CC3)n2)n1` (configuration not stated), the cytotoxicity at 70.5 h was -1.05%.

Consider `O=C(C(CNCc1ccccn1)c1ccccc1)N1CCOCC1` (configuration not stated), for which the cytotoxicity at 70.5 h is 0.375%.

As to `O=S(=O)(NCC1COc2ccccc2C1)N1CCCCC1` (configuration not stated), the cytotoxicity at 70.5 h is -9.29%.

In the case of `CC(C(=O)N1CCN(Cc2ccncc2)CC1)n1cncn1` (configuration not stated), the cytotoxicity at 70.5 h is -4.9%.

`N#Cc1ccc(CNc2cccc(C(=O)N3CCOCC3)c2)cc1`: the cytotoxicity at 70.5 h was -9.56%.

Consider `Cc1ccc(OCCNc2cccc(C(=O)N3CCOCC3)c2)cc1`, for which the cytotoxicity at 70.5 h was determined as 23.6%.

In the case of `CC(C)Cc1nc(CN2CCC(NC(=O)c3cccs3)CC2)no1`, the cytotoxicity at 70.5 h is -6.12%.

Consider `CC(C)c1nn(C)c(N(C)C)c1CNCC(O)COc1ccccc1` (configuration not stated), for which the cytotoxicity at 70.5 h was -3.95%.

As to `Cc1noc(C)c1CN1CCN(C(=O)C(C(C)C)n2cncn2)CC1` (configuration not stated), the cytotoxicity at 70.5 h was 2.25%.

On to `CC(C)(C)C(=O)NCCCC(=O)NC(C)(C)c1ccc2c(c1)OCO2`, for which the cytotoxicity at 70.5 h was determined as 3.16%.

Take `COc1ccc(OCCNc2cccc(C(=O)N3CCOCC3)c2)cc1`: the cytotoxicity at 70.5 h is -3.69%.

For `CC(C)(C)C(=O)NCCC(=O)NC(C)(C)c1ccc2c(c1)OCO2`, the cytotoxicity at 70.5 h is -3.54%.

Consider `O=C(C(CNCc1cccc(O)c1)c1ccccc1)N1CCOCC1` (configuration not stated), for which the cytotoxicity at 70.5 h is -4.48%.

Take `COCC(NC(=O)c1ccoc1C)c1cccc(C(F)(F)F)c1` (configuration not stated): the cytotoxicity at 70.5 h is -2.1%.

With `O=C(C(CNCc1ccccc1O)c1ccccc1)N1CCOCC1` (configuration not stated), the cytotoxicity at 70.5 h is -2.58%.

Regarding `CC(=O)N1CCc2cc(Cl)cc(Cl)c2C1`, the cytotoxicity at 70.5 h is -5.27%.

For the compound `COCCOCC(=O)N1CCc2cc(Cl)cc(Cl)c2C1`, the cytotoxicity at 70.5 h is -6.61%.

Consider `COC(=O)NCC(=O)N1CCc2cc(Cl)cc(Cl)c2C1`, for which the cytotoxicity at 70.5 h is -1.77%.

As to `CC(C)c1noc(CN(Cc2ccccc2)C2CC2)n1`, the cytotoxicity at 70.5 h amounted to 0.0143%.

Turning to `CCOc1cc(CN(C)Cc2ccccc2)ccc1OC(F)F`, the cytotoxicity at 70.5 h was -6.62%.

Consider `CSc1ccc(CN(C)Cc2noc(C(C)(C)C)n2)cc1`, for which the cytotoxicity at 70.5 h is -6.11%.

For the compound `CCOc1cc(CN(C)CCCO)ccc1OC(F)F`, the cytotoxicity at 70.5 h is -6.49%.

`COCC(NC(=O)c1cccnc1)c1cccc(C(F)(F)F)c1` (configuration not stated): the cytotoxicity at 70.5 h was -5.85%.

Take `CCc1nc(C2CCCN2Cc2nc(C(C)(C)C)no2)no1` (configuration not stated): the cytotoxicity at 70.5 h amounted to 2.43%.

As for `CC(C)c1noc(CN(Cc2ccc(F)cc2)C2CC2)n1`, the cytotoxicity at 70.5 h was -8.41%.

`CN(Cc1noc(C(C)(C)C)n1)Cc1ccccc1N1CCCCC1`: the cytotoxicity at 70.5 h is -6.13%.

For `Cc1cc(CN2CCc3cncnc3C2)on1`, the cytotoxicity at 70.5 h turned out to be 9.54%.

Regarding `Cc1cnn(CCNCC(O)c2ccc3c(c2)OCCO3)c1` (configuration not stated), the cytotoxicity at 70.5 h was found to be 4.42%.

As to `CCN(CC)c1ncc(CNC2CCc3nc(C)nn3C2)s1` (configuration not stated), the cytotoxicity at 70.5 h is 4.79%.

As for `CN(CC(N)=O)C(=O)c1cc(Cl)c(Cl)n1C`, the cytotoxicity at 70.5 h is -5.05%.

For the compound `Cc1nnc(C2Cc3ccccc3CN2Cc2ncc(Cl)n2C)o1` (configuration not stated), the cytotoxicity at 70.5 h is -13.3%.

For `C=C(C)CN1CCCC(NS(C)(=O)=O)C1` (configuration not stated), the cytotoxicity at 70.5 h was -5.08%.

For `CNC(=O)CN(C)C(=O)c1cc(Cl)c(Cl)n1C`, the cytotoxicity at 70.5 h came to 17.1%.

As for `CCNC(=O)NC(=O)CN1CCCC1c1nc(C2CCCCC2)co1` (configuration not stated), the cytotoxicity at 70.5 h was -7.64%.

As to `NC(=O)NC(=O)CCN1CCCC1c1nc(C2CCCCC2)co1` (configuration not stated), the cytotoxicity at 70.5 h amounted to 13.4%.

As to `COCCCn1ccc(NC(=O)NCc2cccc(N(C)C)c2)n1`, the cytotoxicity at 70.5 h is -5.16%.

Consider `CN(C)C(=O)CCCn1ccc(NC(=O)NCc2cccc(F)c2)n1`, for which the cytotoxicity at 70.5 h was -16.5%.

Regarding `CCc1nc2n(n1)CC(NCc1cnc(N(CC)CC)s1)CC2` (configuration not stated), the cytotoxicity at 70.5 h was -18.7%.

With `Cc1cccc(CNC(=O)Nc2ccn(CCN(C)C)n2)c1`, the cytotoxicity at 70.5 h is -7.32%.

Regarding `CN(CC(=O)Nc1cc(-c2cc(Cl)cc(Cl)c2)[nH]n1)S(C)(=O)=O`, the cytotoxicity at 70.5 h was -5.73%.

For `Cn1ccnc1CN(CCCO)CC(F)(F)F`, the cytotoxicity at 70.5 h turned out to be 0.0577%.

Take `CCc1cc(CNCc2ccccc2N(C)C2CCN(C)CC2)on1`: the cytotoxicity at 70.5 h is -1.28%.

Consider `CN(C)CCn1ccc2cc(NC(=O)NCc3ncnn3C)ccc21`, for which the cytotoxicity at 70.5 h was -3.79%.

In the case of `O=C(NCCO)NCC(c1ccccc1)N1CCc2sccc2C1` (configuration not stated), the cytotoxicity at 70.5 h is -13.1%.

On to `CC(NC(=O)Nc1nccs1)c1ccncc1` (configuration not stated), for which the cytotoxicity at 70.5 h was -10.5%.

As to `CC(NC(=O)Nc1nccs1)c1cccnc1` (configuration not stated), the cytotoxicity at 70.5 h was -2.43%.

Turning to `Cc1cccc(N2N=C(C(=O)NC(C)Cn3cccn3)CCC2=O)c1` (configuration not stated), the cytotoxicity at 70.5 h is -14.7%.

Regarding `Cc1ccc(C(=O)NCC2COCCO2)c(=O)[nH]1` (configuration not stated), the cytotoxicity at 70.5 h is -17%.

With `CCN1CCC(NC(=O)Cc2csc(C(C)(C)C)n2)CC1`, the cytotoxicity at 70.5 h is 24.8%.

Take `Cc1cc(NC(=O)Nc2ccc3c(ccn3CCN(C)C)c2)n(C)n1`: the cytotoxicity at 70.5 h came out at 2.58%.

For `NC1(c2nc(C(F)(F)F)cc(=O)[nH]2)CCCC1`, the cytotoxicity at 70.5 h was found to be 21.9%.
